# From US4381304A, “4,9-Dihydro-4,9-dioxo-1H-cyclohepta[b]pyridine derivatives” (Ayerst, McKenna & Harrison, Inc., priority 1981, dated 1983)
# Read-outs that look alike come from different tables or passages of the source.
# Key:
# [1] = stability of the salt in the presence of acid; assay type: physicochemical
# Description: A mixture of 3-{[N-(methoxycarbonylmethyl)-N-methylamino]carbonyl}-4,9-dihydro-4,9-dioxo-1H-cyclohepta[b]pyridine-1-acetic acid ethyl ester (2.36 g, described in example 6) and 2% aqueous sodium hydroxide (w/v, 25 ml) was stirred at 25° C. for 4 hr. Evaporation of the reaction mixture gave the title disodium salt. […] The salt had mp>250° C.; nmr (D2 O) δ3.0 (d, 3H), 4.0 (d, 2H), 4.7 (s, 2H), 6.8-8.3 (m, 5H); ir (Nujol*) 3400, 3150, 1610 cm^-1 (with inflections at 1625 and 1585 cm^-1); uv λ max (MeOH) 340 nm (ε7,390), 237 (13,000); Anal Calcd for C16 H12 N2 O7 Na2.3H2 O: C, 43.24% H, 4.08% […]; Found: C, 42.76% H, 3.57%, N, 7.18%.
# aldose reductase [2] = target: T1, aldose reductase (Bos taurus, UniProt P16116); experiment: in vitro aldose reductase inhibition (modified Hayman and Kinoshita procedure); assay type: biochemical, bovine (lens); conditions: for inhibition at 10 µM: read-out: % Inhibition at Different Molar Concentrations (in vitro), 10^-5; for inhibition at 1 µM: 10^-6 molar, read-out: % Inhibition at Different Molar Concentrations (in vitro), 10^-6; for inhibition at 0.1 µM: 10^-7 molar, read-out: % Inhibition at Different Molar Concentrations (in vitro), 10^-7
# T1 construct: preparation of the enzyme from bovine lens; from tissue; host or cells: bovine lens
# Description: In the present case the procedure of Hayman and Kinoshita is modified in that the final chromatography step is omitted in the preparation of the enzyme from bovine lens.
# aldose reductase [3] = conditions: literature report; cited from earlier work
# [4] = test system: diabetic complications such as diabetic cataracts, neuropathy, nephropathy and retinopathy; conditions: literature report (U.S. Pat. No. 3,821,383); cited from earlier work
# [5] = 10^-5 molar, enzyme from bovine lens
Structure (SMILES),inhibition at 10 µM (aldose reductase [2]; [5]),inhibition at 1 µM (aldose reductase [2]; enzyme from bovine lens),inhibition at 0.1 µM (aldose reductase [2]; enzyme from bovine lens),other results
CN(CC(=O)[O-])C(=O)c1cn(CC(=O)[O-])c2c(=O)ccccc2c1=O.[Na+].[Na+],–,–,–,stability in the presence of acid [1]: decomposed in the presence of acid
"O=C(O)Cn1cc(C(=O)O)c(=O)c2cccc(Br)c(=O)c21 [Example 4 (R^1 COOH, R^2 8-Br), 8-bromo-3-carboxy-4,9-dihydro-4,9-dioxo-1H-cyclohepta[b]pyridine-1-acetic acid]",81%,47%,14%,–
CN(CC(=O)[O-])C(=O)c1cn(CC(=O)[O-])c2c(=O)ccccc2c1=O.[Na+].[Na+] [Disodium Salt],–,–,–,inhibition at 10 µM (aldose reductase [2]): 22%
"O=C1NC(=O)[C@@]2(CCOc3ccc(F)cc32)N1 [sorbinil, (S)-6-Fluoro-2,3-dihydrospiro(4H-1-benzopyran-4,4'-imidazolidine)-2',5'-dione]",–,–,–,aldose reductase inhibition (in words) (aldose reductase [3]): aldose reductase inhibiting properties
"O=C(O)Cn1cc(C(=O)O)c(=O)c2ccccc(=O)c21 [Example 4 (R^1 COOH, R^2 H), 3-Carboxy-4,9-dihydro-4,9-dioxo-1H-cyclohepta[b]pyridine-1-acetic Acid]",89%,65%,19%,–
"O=C(O)CN1C(=O)c2cccc3cccc(c23)C1=O [1,3-Dioxo-1H-benz[de]isoquinoline-2(3H)-acetic acid]",–,–,–,"aldose reductase inhibition (in words) (aldose reductase [3]): effective inhibitor of aldose reductase; usefulness for the treatment of diabetic complications (in words) [4]: useful for the treatment of diabetic complications such as diabetic cataracts, neuropathy, nephropathy and retinopathy"
"O=C(O)Cn1cc(C(=O)O)c(=O)c2cc(O)ccc(=O)c21 [Example 4 (R^1 COOH, R^2 6-OH), 3-carboxy-4,9-dihydro-6-hydroxy-4,9-dioxo-1H-cyclohepta[b]pyridine-1-acetic acid]",84%,53%,16%,–
